We go through two compounds from US5591773A, “Inhibition of cataract formation, diseases resulting from oxidative stress, and HIV replication by caffeic acid esters” (priority 1994, dated 1997).

The test system of experiment [1] is TPA-induced cataracts in eyes of rabbits. Briefly: TPA-induced cataracts in rabbits in vivo. More on the design: species or system white New Zealand rabbits. As to conditions: for cataract appearance, rabbit No. 5 (in words): conclusion of the experiment; for cataract appearance, other test animals (in words): rabbit, in vivo. How it is done: B) Test animals. Six healthy young (6-8 weeks old) white New Zealand rabbits of both sexes were used for the experiments. Each animal had normal eyes as confirmed by ocular examination by slit lamp.
C) Treatment of animals and monitoring the eye alterations. Cataracts were induced by the direct application of both TPA and CAPE into the eye chamber. On every third day, 0.05 ml of the TPA solution (200 μg/ml PBS) was injected into the anterior chamber of both eyes via a puncture at the corneo-scleral limbus with a fine 0.3×42 mm needle joined to a tuberculin syringe. The animals were all given local anesthesia with HUMACAIN eye drops (human, Godollo, Hungary) under sterile conditions for each application. One hour after TPA was injected, 0.05 ml of the CAPE solution (50 μg/ml) was administered into the anterior chamber of only the left eye, as above. The right eye of each animal received no further treatment. This procedure was repeated a total of 16 times. Periodic ocular examinations by slit lamp were performed after the 6th, 12th, and final drug applications. Subsequently, examinations were made on the 10th and 23rd days after the last drug treatment. After each ocular examination, the physical findings were recorded and photodocumentation of the eye changes were performed. The photographic documentary was executed in the following manner. Firstly, lenses were illuminated by a fiber optic light source from behind and photographs were taken from a distance of 5-6 cm. The diapositive black and white images on paper were transferred into an IBM personal computer (system 2, model 30) using a Sony-2-Cue CCD video camera that was equipped with Fujinon TV zoom objective (1:1.8) via a 17.5-105 signal-transfer system. Finally, with these computer image reconstructions, the areas of the lens opacifications were delineated and quantified using the Olympus image analyzer C-2 morphometry version 2.2 program.

Experiment [2] deals with TPA-induced PMN infiltration in SENCAR mouse ears (MPO). Briefly: TPA-induced PMN infiltration (MPO) in mouse ears. Format: in vivo, SENCAR mice. Particulars: for MPO in mouse ears, TPA only: TPA 0.4 nmol/ear, 5 h. On the procedure: FIG. 3. Effect of CAPE on TPA-induced PMN infiltration and edema in SENCAR mouse ears. These were paired experiments, in which both ears of each mouse (8-9/group) were treated with 0.4 nmol TPA±CAPE in 20 μl acetone, and the mice were sacrificed 5 h later. (A) One ear was frozen for subsequent determination of MPO (a measure of PMN infiltration). (B) A punch (6 mm diameter) was taken from the second ear and weighed to measure edematous response (weight of sample minus weight of control). (A) Ears of each group (7-9/group) were separately minced and homogenized under different conditions as described in the "Experimental Details" Section, infra. MPO was determined in duplicate. MPO was undetectable in acetone controls and was 4.13±0.0 units/mg protein and 1.18±0.1 units/mg protein in the 2 homogenates of TPA-only-treated mice. CAPE-mediated inhibition was calculated versus the appropriate TPA-only sample, which was homogenized the same way. (B) Weights of ear punches (8-9/group, each determined separately). Acetone controls, 7.2±0.1 mg; TPA in acetone, 16.7±0.7 mg.
B) Edema Determination. Both ears of SENCAR mice (7-9 mice/group) were treated with 0.4 nmol TPA in 20 μl acetone alone or together with added 0.1 nmol, 0.3 nmol, or 1 μmol CAPE. […] The mice were sacrificed by cervical dislocation 5 h after treatment, and edema was measured on one mouse ear, while the second ear was immediately frozen and later analyzed for PMN infiltration by quantifying myeloperoxidase (MPO) (see below). Ear edema (increased weight of ear punches) was determined as previously described (24). Edema was expressed as mg/6 mm (diameter) ear punch±SE.
The assay for MPO was carried out according to the procedure of Metcalf et al. (53) with some modifications (20), and the results are expressed as units/cm^2, where a unit is defined as that degrading 1 μmol H2 O2 /min at 25° C. The presence of MPO in the mouse ears was measured in the homogenates. […] Each homogenate was analyzed in duplicate and the results are expressed as mean MPO (units/mg protein) ±SE for each of the homogenates.

The next experiment deals with bovine lens (H2O2). Briefly: H2O2 formation in bovine lens. The format is cell-based. As to conditions: for H2O2 / increase in H2O2 concentration over control lenses: 24 h; for H2O2: mean of 3 ± SE. On the procedure: B) Bovine Lens Bovine lenses were obtained from a New Jersey slaughterhouse 3 h after the animals were sacrificed. Lenses were immediately immersed in artificial aqueous humor (AAH; 130 mMNaCl, 5 mMKCl, 1 mM CaCl2, 0.5 mM MgCl2, 10 mM NaHCO3, 10 mM 4-(2-hydroxyethyl)-1-piperazineethanesulfonic acid (pH 7.3), and 2.5 mM D-glucose). Each of the bovine lenses in AAH (about 15 ml/lens) supplemented with 10 mM azide (a catalase inhibitor) was incubated with various amounts (0-1 μM) TPA at 37° C. for 24 h in the presence or absence of CAPE (1 μM), as described for use of other chemopreventive agents (31). For comparison, the lenses were also incubated with glucose (2.5 mM)/glucose oxidase (25 μM), a H2 O2 -generating system.
After incubation, lenses were homogenized in 15 ml of azide-supplemented AAH in a Waring Blender, and H2 O2 content was determined spectrofluorometrically, as described previously (55). Briefly, the homogenates were incubated with 2',7'-dichlorofluorescin diacetate, which is deacetylated by the esterase present in the homogenate. In the presence of HRPO, the nonfluorescent substrate was oxidized by H2 O2 generated in the lens to a highly fluorescent product, which was measured at excitation 475 nm and emission 525 nm (30, 31, 55). The amount of H2 O2 generated was determined from a standard curve, which was constructed by addition of increasing concentrations of H2 O2 to a homogenate derived from a control lens incubated only in AAH.

“And” between values parts separate entries of the source, which are not always exact repeats. Identical values can stand only once. “Also recorded” adds a separate entry of the source.

As to `O=C(/C=C/c1ccc(O)c(O)c1)OCCc1ccccc1` [CAPE, Caffeic acid phenethyl ester], the “area of TPA-induced cataracts larger in eye without CAPE than in CAPE-injected eye” value in experiment [1] (5 of 6 animals) was 2.2-44.2 times. In addition, the “Size of cataract, CAPE (TPA + CAPE treated left eye)” value in experiment [1] (CAPE 0.05 ml of 50 μg/ml 1 h after TPA, 16 times, one line per animal) was 1.428 relative units and 6.739 relative units and 10.77 relative units and 28.722 relative units and 30.199 relative units and 43.184 relative units. For the same compound, in experiment [1], the “cataract appearance, rabbit No. 5 (in words)” value is given as “a small capsular-subcapsular immature cataract is evident”; the “cataract appearance, other test animals (in words)” value is “generally smaller and more immature”. Further, the “Size of cataract, % of Control” value in experiment [1] (left (TPA + CAPE) vs right (TPA) eye of the same animal, one line per animal) is 2.25% and 45.83% and 10.26% and 25.73% and 30.22% and 151.11%. The “lens appearance, effect of CAPE (in words)” value in experiment [1] (left eye, intracameral CAPE after TPA) is on record as “significantly clearer; also recorded: produced a prophylactic effect on incipient cataracts; also recorded: significantly reduced the pathological effects of this phorbol ester”. Further, the “animals with smaller cataract in CAPE-treated eye” value in experiment [1] (rabbits, termination of the experiment) is on record as 5 out of the 6. The “suppression of TPA-induced PMN infiltration, ear” value in experiment [2] (CAPE 0.1 nmol/ear, TPA 0.4 nmol) is listed as roughly 50%. The compound also gave an H2O2 with bovine lens (H2O2) (1 μM CAPE 30 min then 0.1 μM TPA) of 13.1 ± 1.3 µM. For the same compound, in the experiment with bovine lens (H2O2) (1 μM CAPE/0.1 μM TPA), the “H2O2, % of change from control” value turned out to be 110%. Besides, the inhibition at 1 µM in the experiment with bovine lens (H2O2) (Bos taurus, 1 μM CAPE 30 min, then 0.1 μM TPA 24 h, read-out: decline in TPA-induced H2O2 production) is roughly 95%.

On to `CCCCCCCCCCCCCC(=O)O[C@@H]1[C@@H](C)[C@@]2(O)[C@@H](C=C(CO)C[C@]3(O)C(=O)C(C)=C[C@@H]23)[C@@H]2C(C)(C)[C@]12OC(C)=O` [TPA, 12-O-tetradecanoylphorbol-13-acetate], for which the “Size of cataract, Control (TPA-treated right eye)” value in experiment [1] (TPA 0.05 ml of 200 μg/ml into anterior chamber every third day, 16 times, one line per animal) is 63.139 relative units and 14.704 relative units and 104.97 relative units and 111.62 relative units and 99.923 relative units and 28.578 relative units. The “induction of cataracts in live rabbits (in words)” value in experiment [1] (TPA injected into anterior chamber) is “Cataracts of various sizes and types were evident by ocular examination in both eyes starting after the 12th TPA injection; also recorded: potent inducer of cataracts in the eyes of live rabbits”. In experiment [1], the “cataract appearance, rabbit No. 5 (in words)” value is recorded as “a rather large arched subcortical condensed immature but developing cataract is evident”. The “cataract appearance, other test animals (in words)” value in experiment [1] is “larger, more mature cataracts that had spread deeply into the nuclear region”. Further, the “MPO in mouse ears, TPA only” value is 4.13±0.0 units/mg protein in experiment [2] (first of 2 homogenates) and 1.18±0.1 units/mg protein in experiment [2] (second of 2 homogenates). Besides, the “H2O2, % of change from control” value with bovine lens (H2O2) (0.01 μM TPA) is listed as 95%; in the experiment on bovine lens (H2O2) (0.05 μM TPA), 200%; in the experiment on bovine lens (H2O2) (0.10 μM TPA) it was 360%; in the experiment on bovine lens (H2O2) (1.0 μM TPA), 705%. Moreover, the H2O2 with bovine lens (H2O2) (0.01 μM TPA) was determined as 11.3 ± 0.2 µM; with bovine lens (H2O2) (0.05 μM TPA), 23.3 ± 1.3 µM; in the experiment on bovine lens (H2O2) (0.10 μM TPA) it was 42.7 ± 1.6 µM; with bovine lens (H2O2) (1.0 μM TPA) it was 83.8 ± 5.6 µM. The “increase in H2O2 concentration over control lenses” value was “about 2 fold” with bovine lens (H2O2) (0.05 μM TPA), roughly 3.5 fold in the experiment on bovine lens (H2O2) (0.1 μM TPA) and roughly 7 fold in the experiment with bovine lens (H2O2) (1.0 μM TPA).
